Values quoted from earlier work, collected in patent publication US11173064B2, “High-precision drug delivery by dual-domain ocular device” (LYNTHERA CORPORATION, priority 2016, dated 2021).
Structures can show the parent of a compound that is named as a salt.

Conditions: octanol/water

Row | Structure (SMILES) | log P
1 | CCNC(=O)CCC/C=C\C[C@@H]1[C@@H](/C=C/[C@@H](O)CCc2ccccc2)[C@H](O)C[C@@H]1O [bimatoprost] | ~3.2
2 | CC(C)(C)NC[C@H](O)COc1nsnc1N1CCOCC1 [timolol maleate] | ~1.4
